The values that follow come from US10131675B2 (Genentech, Inc., priority 2015, dated 2018).

Sequence of DLK (Q12852 1-520): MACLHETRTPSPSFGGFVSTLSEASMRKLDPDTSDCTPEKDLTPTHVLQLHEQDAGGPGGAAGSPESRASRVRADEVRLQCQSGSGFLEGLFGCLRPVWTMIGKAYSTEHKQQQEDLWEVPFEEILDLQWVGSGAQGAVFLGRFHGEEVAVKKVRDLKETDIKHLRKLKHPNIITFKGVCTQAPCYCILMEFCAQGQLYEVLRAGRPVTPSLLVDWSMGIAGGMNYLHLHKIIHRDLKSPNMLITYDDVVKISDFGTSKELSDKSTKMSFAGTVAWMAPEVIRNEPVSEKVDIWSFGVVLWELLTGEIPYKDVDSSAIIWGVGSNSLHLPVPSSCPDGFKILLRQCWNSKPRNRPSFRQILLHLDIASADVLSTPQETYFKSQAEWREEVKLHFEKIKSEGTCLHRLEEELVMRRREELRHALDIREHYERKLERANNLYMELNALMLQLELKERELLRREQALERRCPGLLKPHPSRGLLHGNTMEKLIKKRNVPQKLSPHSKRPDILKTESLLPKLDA

The assay addresses DLK (Homo sapiens (Human), UniProt Q12852). As to the kind of experiment: DLK TR-FRET Inhibition Assay. Format: biochemical. As to conditions: N-terminally GST-tagged DLK (catalytic domain amino acid 1-520), MKK4 K131M substrate, 30 μM ATP; read-out: DLK HTRF Ki. An outline of the steps:
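GST-tagged DLK catalytic domain (aa 1-520, 5 nM) phosphorylates 40 nM HIS-tagged MKK4 K131M with 30 μM ATP, pH 7.5, 60 min at ambient temperature; compounds 1:3 serial from 20 uM. Phospho-MKK4 detected by TR-FRET (Eu-cryptate anti-phospho-MKK4/D2 anti-HIS) after 3 h.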
Background: TR-FRET usually uses a lanthanide donor and a delayed reading to cut background.
The term Ki denotes the dissociation constant of the complex between target and ligand, obtained from inhibition or displacement. Turning to `CC1(C)OCCn2c1nc1c(N3CC4CCOC4C3)nc(-c3cnc(N)nc3)nc12` (stereo not drawn) [Example 14, 5-[1-(Hexahydro-furo[2,3-c]pyrrol-5-yl)-8,8-dimethyl-5,6-dihydro-8H-7-oxa-2,4,4b,9-tetraaza-fluoren-3-yl]-pyrimidin-2-ylamine], the Ki turned out to be 990 nM.
For `CCOc1cc(-c2nc(N3CCC(F)(F)C3)c3nc4n(c3n2)CCOC4(C)C)cnc1N` [Example 78] the value was 558 nM; for `C[C@]1(C2CC2)OCCn2c1nc1c(C3CC3)nc(-c3cnc(N)nc3)nc12` (single isomer, unassigned) [Example 105], 211 nM; for `CO[C@H]1CC2CC1CN2c1nc(-c2cnc(N)nc2)nc2c1nc1n2CCOC1(C)C` (single isomer, unassigned) [Example 141], 392 nM.
As for `CC1(C)OCCn2c1nc1c(NC3CCCC3)nc(-c3cnc(N)nc3)nc12` [Example 123, 2-(2-aminopyrimidin-5-yl)-N-cyclopentyl-6,6-dimethyl-8,9-dihydro-6H-[1,4]oxazino[4,3-e]purin-4-amine], the figure is 60.1 nM.
For `CCC(C)Oc1cc(-c2nc(N3CC(F)(F)C3)c3nc4n(c3n2)CCOC4(C)C)cnc1N` (stereo not drawn) [Example 72] the value was 230 nM.
Consider `C[C@H]1COC(C)(C)c2nc3c(C4CC4)nc(-c4cnc(N)nc4)nc3n21` (single isomer, unassigned) [Example 102], for which the inhibitory constant (Ki) was 157 nM.
Consider `CC1(C)OCCn2c1nc1c(N3CC4CC3C4)nc(-c3cnc(N)nc3)nc12` [Example 46, 5-[1-(2-Aza-bicyclo[2.1.1]hex-2-yl)-8,8-dimethyl-5,6-dihydro-8H-7-oxa-2,4,4b,9-tetraaza-fluoren-3-yl]-pyrimidin-2-ylamine], for which the Ki is 130 nM.
As for `CN(c1nc(-c2cnc(N)nc2)nc2c1nc1n2CCOC1(C)C)C1CCC1` [Example 58, 2-(2-aminopyrimidin-5-yl)-N-cyclobutyl-N,6,6-trimethyl-8,9-dihydro-6H-[1,4]oxazino[4,3-e]purin-4-amine], the figure is 87.7 nM; as for `CN(C)c1nc(-c2cnc3[nH]cc(C(F)(F)F)c3c2)nc2c1nc1n2CCCOC1` [Example 129, N,N-dimethyl-2-(3-(trifluoromethyl)-1H-pyrrolo[2,3-b]pyridin-5-yl)-6,8,9,10-tetrahydro-[1,4]oxazepino[4,3-e]purin-4-amine], 1.64 nM.
Turning to `CC(C)Oc1cc(-c2nc(N3CC4CC3C4)c3nc4n(c3n2)CCOC4(C)C)cnc1N` [Example 22, 5-[1-(2-Aza-bicyclo[2.1.1]hex-2-yl)-8,8-dimethyl-5,6-dihydro-8H-7-oxa-2,4,4b,9-tetraaza-fluoren-3-yl]-3-isopropoxy-pyridin-2-ylamine], the Ki is 406 nM.
For `CC1(C)OCCn2c1nc1c(N3CCC4(CCCO4)C3)nc(-c3cnc(N)nc3)nc12` (stereo not drawn) [Example 156] the value was 1300 nM; for `CC1(C)OCCn2c1nc1c(N3CC4CC3CC4(F)F)nc(-c3cnc(N)nc3)nc12` (stereo not drawn) [Example 11], 262 nM; for `Nc1ncc(-c2nc(N3CC4CC3C4)c3nc4n(c3n2)CCCOC4)cc1OC(F)F` [Example 135, 5-(4-(2-azabicyclo[2.1.1]hexan-2-yl)-6,8,9,10-tetrahydro-[1,4]oxazepino[4,3-e]purin-2-yl)-3-(difluoromethoxy)pyridin-2-amine], 30.8 nM.
As for `CC(C)c1c[nH]c2ncc(-c3nc(N4CCC(F)(F)C4)c4nc5n(c4n3)CCOC5(C)C)cc12` [Example 75], the figure is 112 nM; as for `Nc1ncc(-c2nc(N3CC4CC3C4)c3nc4n(c3n2)CCOC42CCC2)cn1` [Example 114, 5-(4-(2-azabicyclo[2.1.1]hexan-2-yl)-8,9-dihydrospiro[[1,4]oxazino[4,3-e]purine-6,1′-cyclobutan]-2-yl)pyrimidin-2-amine], 52.1 nM.
As for `CC1(C)OCCn2c1nc1c(N3CC4CC3C4)nc(-c3cnc(N)c(C(F)(F)F)c3)nc12` [Example 90, 5-(4-(2-azabicyclo[2.1.1]hexan-2-yl)-6,6-dimethyl-8,9-dihydro-6H-[1,4]oxazino[4,3-e]purin-2-yl)-3-(trifluoromethyl)pyridin-2-amine], the figure is 5.98 nM; as for `CC1(C)OCCn2c1nc1c(N3CC4CC4C3)nc(-c3cnc(N)nc3)nc12` (stereo not drawn) [Example 5, 5-[1-(3-Aza-bicyclo[3.1.0]hex-3-yl)-8,8-dimethyl-5,6-dihydro-8H-7-oxa-2,4,4b,9-tetraaza-fluoren-3-yl]-pyrimidin-2-ylamine], 328 nM.
Regarding `CCC1CCCN1c1nc(-c2cnc(N)nc2)nc2c1nc1n2CCOC1(C)C` (stereo not drawn) [Example 24, 5-[1-(2-Ethyl-pyrrolidin-1-yl)-8,8-dimethyl-5,6-dihydro-8H-7-oxa-2,4,4b,9-tetraaza-fluoren-3-yl]-pyrimidin-2-ylamine], the Ki was 294 nM.
As for `CC1(C)OCCCn2c1nc1c(N3CC4CC3C4)nc(-c3cnc(N)nc3)nc12` [Example 137, 5-(4-(2-azabicyclo[2.1.1]hexan-2-yl)-6,6-dimethyl-6,8,9,10-tetrahydro-[1,4]oxazepino[4,3-e]purin-2-yl)pyrimidin-2-amine], the figure is 177 nM.
For `CNc1ncc(-c2nc(N3CC4CC3C4)c3nc4n(c3n2)CCOC4(C)C)cn1` [Example 47] the value was 1300 nM.
In the case of `CC1(C)OCCn2c1nc1c(N3CCC4(CCOC4)C3)nc(-c3cnc(N)nc3)nc12` (stereo not drawn) [Example 12, 5-[8,8-Dimethyl-1-(2-oxa-7-aza-spiro[4.4]non-7-yl)-5,6-dihydro-8H-7-oxa-2,4,4b,9-tetraaza-fluoren-3-yl]-pyrimidin-2-ylamine], the Ki was found to be 584 nM.
For `CC(C)Oc1cc(-c2nc(N3CCC(F)(F)C3)c3nc4n(c3n2)CCOC4(C)C)cnc1N` [Example 79] the value was 269 nM; for `CC1(C)OCCn2c1nc1c(N3C[C@@H](F)[C@@H](F)C3)nc(-c3cnc(N)nc3)nc12` [Example 29, 5-[1-(cis-3,4-Difluoro-pyrrolidin-1-yl)-8,8-dimethyl-5,6-dihydro-8H-7-oxa-2,4,4b,9-tetraaza-fluoren-3-yl]-pyrimidin-2-ylamine], 297 nM; for `CC1(C)OCCn2c1nc1c(N3CCC4(COC4)C3)nc(-c3cnc(N)nc3)nc12` [Example 8, 5-[8,8-Dimethyl-1-(2-oxa-6-aza-spiro[3.4]oct-6-yl)-5,6-hydro-8H-7-oxa-2,4,4b,9-tetraaza-fluoren-3-yl]-pyrimidin-2-ylamine], 469 nM.
Regarding `Cc1c[nH]c2ncc(-c3nc(N4CCC(F)(F)C4)c4nc5n(c4n3)CCOC5(C)C)cc12` [Example 74], the Ki came out at 25.9 nM.
Regarding `CC1(C)OCCn2c1nc1c(NC3CCC3)nc(-c3cnc(N)nc3)nc12` [Example 124], the Ki was 73.9 nM.
As for `CN(C)c1nc(-c2cnc3[nH]cc(C#N)c3c2)nc2c1nc1n2CCCOC1` [Example 128, 5-(4-(dimethylamino)-6,8,9,10-tetrahydro-[1,4]oxazepino[4,3-e]purin-2-yl)-1H-pyrrolo[2,3-b]pyridine-3-carbonitrile], the figure is 17.9 nM; as for `COc1nc(-c2cnc3[nH]cc(C(F)(F)F)c3c2)nc2c1nc1n2CCOC1(C)C` [Example 87], 14 nM; as for `CC1(C)OCCn2c1nc1c(N3CC4CCC3C4)nc(-c3cnc(N)nc3)nc12` (stereo not drawn) [Example 33, 5-[1-(2-Aza-bicyclo[2.2.1]hept-2-yl)-8,8-dimethyl-5,6-dihydro-8H-7-oxa-2,4,4b,9-tetraaza-fluoren-3-yl]-pyrimidin-2-ylamine], 90.3 nM.
